Reference: patent EP4759814A1, “TRICYCLIC COMPOUND AND USE THEREOF AS MAT2A INHIBITOR” (SK Biopharmaceuticals Co., Ltd., priority 2023, dated 2025)

Target: T1, MAT2A (Homo sapiens, UniProt P31153)
T1 construct: purchased BPS Bioscience (USA) 71401
Test: MAT2A inhibitory activity, colorimetric phosphate detection (PiColorLock) enzyme assay
Format: biochemical
Settings: Test Condition 1 or 2 (not stated which per compound); absorbance at 630 nm
Protocol: In vitro assay: Methionine and adenosine triphosphate (ATP) are converted into S-adenosylmethionine (SAM) and inorganic phosphate (pi) via the catalytic action of methionine adenosyltransferase 2A (MAT2A). The produced pi is detected by the PiColorLock™ Phosphate Detection Reagent, which is a colorimetric assay, and the activity of MAT2A can be evaluated according to the amount of pi generated during the enzyme reaction. Each compound was evaluated under Test Condition 1 or 2 as described below.
• Concentration of MAT2A inhibitor: maximum concentration of 50 µM, 5-fold dilution (7 groups in total) • MAT2A concentration: 12 ng/µL • ATP and Met concentration: 100 µM, 80 µM
• Concentration of MAT2A inhibitor: maximum concentration of 1 µM, 3-fold dilution (7 groups in total) • MAT2A concentration: 4 ng/µL • ATP and Met concentration: 300 µM, 150 µM • Reagents: Methionine (catalog number M5308) and ATP (catalog number A2383) were purchased from Sigma-Aldrich (USA). MAT2A (catalog number 71401) was purchased from BPS Bioscience (USA), and PiColorLock™ Phosphate Detection Reagent (catalog number 303-0030) was purchased from Novus (USA).
Assay buffer composition: 50 mM Tris-HCl pH 8.0, 50 mM KCI, 15 mM MgCl2, 0.3 mM EDTA, 0.005 % (w/v) BSA
Experimental procedure: Each compound was diluted 5-fold or 3-fold based on the maximum concentration (5 mM or 1 mM or 0.1 mM) using DMSO. The diluted compounds were diluted 20-fold using assay buffer, and then mixed at a volume ratio of 1:2 with MAT2A (30 ng/µL or 10 ng/µL) diluted with assay buffer and treated for 30 minutes at room temperature. The negative control group is a group untreated with both the MAT2A enzyme and the compound according to an embodiment of the present application, and the positive control group is a group treated only with the MAT2A enzyme and untreated with the compound according to an embodiment of the present application.
In each well of a 384-well plate, 30 µL of the mixed solution and 20 µL of a 1:1 mixed solution of ATP (0.5 mM or 1.5 mM) and Met (0.4 mM or 0.75 mM) were mixed and then treated for 1 hour at room temperature. After the enzyme reaction, 13 µL of a 100:1 mixed solution of PiColorLockTM and Accelerator was treated in each well and reacted for 5 minutes at room temperature. After treating 5 µL of Stabilizer in each well and reacting for 25 minutes at room temperature, the absorbance at 630 nm was measured using SpectraMax M4 (Molecular Devices, USA) to calculate the IC50 value of the compound.
Analysis method: The enzyme activity (%) of each experimental group was calculated as {(average O.D. of compound-treated group - average O.D. of negative control group)/(average O.D. of positive control group - average O.D. of negative control group)} * 100. After preparing a dose-response curve (4-parameter) using the enzyme activity according to the treatment concentration of each compound in GraphPad Prism 9, the 50 % of enzyme inhibitory activity value (IC50) was calculated through non-linear regression analysis. The IC50 results measured for the MAT2A activity inhibitory ability of the compounds according to an embodiment of the present application are shown in Table 2 (+++: more than 1 to 100 nM, ++: more than 100 to 1,000 nM, +: more than 1,000 to 10,000 nM, -: more than 10,000 nM).

T1 sequence (P31153 whole entry): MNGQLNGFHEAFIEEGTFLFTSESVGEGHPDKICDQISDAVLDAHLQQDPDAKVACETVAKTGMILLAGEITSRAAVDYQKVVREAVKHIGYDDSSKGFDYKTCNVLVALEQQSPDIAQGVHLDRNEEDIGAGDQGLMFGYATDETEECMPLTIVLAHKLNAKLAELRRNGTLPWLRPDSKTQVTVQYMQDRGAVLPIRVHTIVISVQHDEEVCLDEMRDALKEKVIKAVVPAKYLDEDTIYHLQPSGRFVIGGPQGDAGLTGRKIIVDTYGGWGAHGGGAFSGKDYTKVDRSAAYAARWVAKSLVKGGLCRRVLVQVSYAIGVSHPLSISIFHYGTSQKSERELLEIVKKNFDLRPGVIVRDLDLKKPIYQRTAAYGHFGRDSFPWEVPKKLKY

Row | Compound | IC50 [µM]
1 | Cc1ncccc1-n1c(=O)c2nccn2c2cc(Cl)c(Br)cc21 (atropisomer, axis not shown; (Ra)) [Example 80, (Ra)-7-bromo-8-chloro-5-(2-methylpyridin-3-yl)imidazo[1,2-a]quinoxalin-4(5H)-one] | > 10
2 | Cc1cc2c(cc1C(F)(F)F)n(-c1cccnc1C)c(=O)c1nccn12 (atropisomer, axis not shown; (Ra)) [Example 94, (Ra)-8-methyl-5-(2-methylpyridin-3-yl)-7-(trifluoromethyl)imidazo[1,2-a]quinoxalin4(5H)-one] | > 10
3 | Cc1ncccc1-n1c(=O)c2nccn2c2cc(Cl)c(C(F)(F)F)cc21 (atropisomer, axis not shown; (Ra)) [Example 97, (Ra)-8-chloro-5-(2-methylpyridin-3-yl)-7-(trifluoromethyl)imidazo[1,2-a]quinoxalin-4(5H)-one] | > 10
4 | CCc1ncccc1-n1c(=O)c2nccn2c2cc(Cl)c(C(F)(F)F)cc21 (atropisomer, axis not shown; (Ra)) [Example 111, (Ra)-8-chloro-5-(2-ethylpyridin-3-yl)-7-(trifluoromethyl)imidazo[1,2-a]quinoxalin-4(5H)-one] | > 10
5 | O=c1c2nccn2c2ccc(Cl)cc2n1-c1ccccc1F [Example 12, 7-chloro-5-(2-fluorophenyl)imidazo[1,2-a]quinoxalin-4(5H)-one] | > 10
6 | Cc1ccccc1-n1c(=O)c2nccn2c2ccc(F)cc21 [Example 41, 7-fluoro-5-(o-tolyl)imidazo[1,2-a]quinoxalin-4(5H)-one] | 1 to 10
7 | N#Cc1ccccc1-n1c(=O)c2nccn2c2ccc(Cl)cc21 [Example 43, 2-(7-chloro-4-oxoimidazo[1,2-a]quinoxalin-5(4H)-yl)benzonitrile] | > 10
8 | Cc1ccccc1-n1c(=O)c2nccn2c2ccc(C(C)C)nc21 [Example 47, 7-isopropyl-5-(o-tolyl)imidazo[1,2-a]pyrido[2,3-e]pyrazin-4(5H)-one] | > 10
9 | O=c1c2nccn2c2ccc(Cl)cc2n1-c1ccccc1OC(F)(F)F [Example 50, 7-chloro-5-(2-(trifluoromethoxy)phenyl)imidazo[1,2-a]quinoxalin-4(5H)-one] | 1 to 10
10 | Cc1cccc(C)c1-n1c(=O)c2nccn2c2ccc(Cl)cc21 [Example 51, 7-chloro-5-(2,6-dimethylphenyl)imidazo[1,2-a]quinoxalin-4(5H)-one] | > 10
11 | Cc1ncccc1-n1c(=O)c2nc(CN3CCOCC3)cn2c2ccc(Cl)cc21 [Example 62, 7-chloro-5-(2-methylpyridin-3-yl)-2-(morpholinomethyl)imidazo[1,2-a]quinoxalin-4(5H)-one] | 0.1 to 1
12 | Cc1ncccc1-n1c(=O)c2nc(CN3CCC4(CC3)COC4)cn2c2ccc(Cl)cc21 [Example 63, 2-((2-oxa-7-azaspiro[3.5]nonane-7-yl)methyl)-7-chloro-5-(2-methylpyridin-3-yl)imidazo[1,2-a]quinoxalin-4(5H)-one] | > 10
13 | Cc1ncccc1-n1c(=O)c2nccn2c2cc(C(F)(F)F)c(Br)cc21 [Example 76, 7-bromo-5-(2-methylpyridin-3-yl)-8-(trifluoromethyl)imidazo[1,2-a]quinoxalin-4(5H)-one] | > 10
14 | Cc1cc2c(cc1Br)n(-c1cccnc1O)c(=O)c1nccn12 [Example 90, 7-bromo-5-(2-hydroxypyridin-3-yl)-8-methylimidazo[1,2-a]quinoxalin-4(5H)-one] | > 10
15 | Cc1ncccc1-n1c(=O)c2nccn2c2c(N3CCCC3)cc(Cl)cc21 [Example 104, 7-chloro-5-(2-methylpyridin-3-yl)-9-(pyrrolidine-1-yl)imidazo[1,2-a]quinoxalin-4(5H)-one] | > 10
16 | Cc1ncccc1-n1c(=O)c2nccn2c2c(N(C)C)cc(Cl)cc21 [Example 106, 7-chloro-9-(dimethylamino)-5-(2-methylpyridin-3-yl)imidazo[1,2-a]quinoxalin-4(5H)-one] | > 10
17 | Cc1ncccc1-n1c(=O)c2nccn2c2c(OCC(F)(F)F)cc(C(F)(F)F)cc21 [Example 117, 5-(2-methylpyridin-3-yl)-9-(2,2,2-trifluoroethoxy)-7-(trifluoromethyl)imidazo[1,2-a]quinoxalin-4(5H)-one] | 0.001 to 0.1

Continued, values first:

Row | IC50 [µM] | Compound
18 | > 10 | Cc1c(F)cccc1-n1c(=O)c2nccn2c2ccc(OCC(F)(F)F)cc21 [Example 29, 5-(3-fluoro-2-methylphenyl)-7-(2,2,2-trifluoroethoxy)imidazo[1,2-a]quinoxalin-4(5H)-one]
19 | > 10 | CCOc1ccc2c(c1)n(-c1cccc(F)c1C)c(=O)c1nccn12 [Example 31, 7-ethoxy-5-(3-fluoro-2-methylphenyl)imidazo[1,2-a]quinoxalin-4(5H)-one]
20 | > 10 | Cc1ccccc1-n1c(=O)c2nccn2c2cnc(Cl)cc21 [Example 42, 3-chloro-5-(o-tolyl)imidazo[1,2-a]pyrido[4,3-e]pyrazin-6(5H)-one]
21 | 0.001 to 0.1 | CS(=O)(=O)Nc1cccc(-n2c(=O)c3nccn3c3ccc(Cl)cc32)c1 [Example 44, N-(3-(7-chloro-4-oxoimidazo[1,2-a]quinoxalin-5(4H)-yl)phenyl)methanesulfonamide]
22 | 0.1 to 1 | Cc1nccnc1-n1c(=O)c2nccn2c2ccc(Cl)cc21 [Example 48, 7-chloro-5-(3-methylpyrazin-2-yl)imidazo[1,2-a]quinoxalin-4(5H)-one]
23 | > 10 | Cc1cccnc1-n1c(=O)c2nccn2c2ccc(Cl)cc21 [Example 53, 7-chloro-5-(3-methylpyridin-2-yl)imidazo[1,2-a]quinoxalin-4(5H)-one]
24 | 1 to 10 | CC(=O)c1cnc2c(=O)n(-c3cccnc3C)c3cc(C(F)(F)F)ccc3n12 [Example 59, 1-acetyl-5-(2-methylpyridin-3-yl)-7-(trifluoromethyl)imidazo[1,2-a]quinoxalin-4(5H)-one]
25 | > 10 | Cc1ncccc1-n1c(=O)c2nc(CN3CCN(C)CC3)cn2c2ccc(Cl)cc21 [Example 61, 7-chloro-2-((4-methylpiperazin-1-yl)methyl)-5-(2-methylpyridin-3-yl)imidazo[1,2-a]quinoxalin-4(5H)-one]
26 | 0.1 to 1 | COCCNCc1cn2c(n1)c(=O)n(-c1cccnc1C)c1cc(Cl)ccc12 [Example 64, 7-chloro-2-(((2-methoxyethyl)amino)methyl)-5-(2-methylpyridin-3-yl)imidazo[1,2-a]quinoxalin-4(5H)-one]
27 | 1 to 10 | Cc1ccccc1-n1c(=O)c2nccn2c2cc(Br)c(Cl)cc21 [Example 72, 8-bromo-7-chloro-5-(o-tolyl)imidazo[1,2-a]quinoxalin-4(5H)-one]
28 | > 10 | Cc1ncccc1-n1c(=O)c2nccn2c2cc(C(F)F)c(Br)cc21 [Example 82, 7-bromo-8-(difluoromethyl)-5-(2-methylpyridin-3-yl)imidazo[1,2-a]quinoxalin-4(5H)-one]
29 | 1 to 10 | Cn1nccc1-n1c(=O)c2nccn2c2cc(Cl)c(Br)cc21 [Example 83, 7-bromo-8-chloro-5-(1-methyl-1H-pyrazol-5-yl)imidazo[1,2-a]quinoxalin-4(5H)-one]
30 | 0.1 to 1 | Cc1ncccc1-n1c(=O)c2nccn2c2c(OC(F)F)cc(C(F)(F)F)cc21 [Example 115, 9-(difluoromethoxy)-5-(2-methylpyridin-3-yl)-7-(trifluoromethyl)imidazo[1,2-a]quinoxalin-4(5H)-one]
31 | 0.001 to 0.1 | CCOc1cc(C(F)(F)F)cc2c1n1ccnc1c(=O)n2-c1cccnc1C [Example 118, 9-ethoxy-5-(2-methylpyridin-3-yl)-7-(trifluoromethyl)imidazo[1,2-a]quinoxalin-4(5H)-one]
